Source: patent US6737383B1, “Herbicidal oxadiazolidines” (priority 1999, dated 2004)

What was measured:
[1] = system: barnyardgrass; assay: Test C postemergence barnyardgrass; type: in vivo, Echinochloa crus-galli; details: 0 to 100 scale, 0 no effect, 100 complete control
Description: (§1) Compounds evaluated in this test were formulated in a non-phytotoxic solvent mixture which included a surfactant and applied to plants that were grown for various periods of time before treatment (postemergence application). A mixture of sandy loam soil and greenhouse potting mix in a 60:40 ratio was used for the postemergence test.
(§2) Plantings of these crops and weed species were adjusted to produce plants of appropriate size for the postemergence test. All plant species were grown using normal greenhouse practices. Crop and weed species include arrowleaf sida (Sida rhombifolia), barnyardgrass (Echinochloa crus-galli), cocklebur (Xanthium strumarium), common ragweed (Ambrosia elatior), corn (Zea mays), cotton (Gossypium hirsutum), eastern black nightshade (Solanum ptycanthum), fall panicum (Panicum dichotomiflorum), field bindweed (Convolvulus arvensis), giant foxtail (Setaria faberii), hairy beggarticks (Bidens pilosa), ivyleaf morningglory (Ipomoea hederacea), johnsongrass (Sorghum halepense), ladysthumb smartweed (Polygonum persicaria), lambsquarters (Chenopodium album), large crabgrass (Digitaria sanguinalis), purple nutsedge (Cyperus rotundus), redroot pigweed (Amaranthus retroflexus), soybean (Glycine max), surinam grass (Brachiaria decumbens), velvetleaf (Abutilon theophrasti) and wild poinsettia (Euphorbia heterophylla).
(§3) Treated plants and untreated controls were maintained in a greenhouse for approximately 14, to 21 days, after which all treated plants were compared to untreated controls and visually evaluated. Plant response ratings, summarized in Table C, were based upon a 0 to 100 scale where 0 was no effect and 100 was complete control. A dash response (−) means no test result.

[2] = system: deadnettle; assay: Test E deadnettle; type: in vivo, Lamium amplexicaule; details: Postemergence
Description: (§4) Compounds evaluated in this test were formulated in a non-phytotoxic solvent mixture which included a surfactant and applied to plants that were in the 1- to 4-leaf stage (postemergence application). A mixture of sandy loam soil and greenhouse potting mix in a 60:40 ratio was used for the postemergence test.
(§5) Plantings of these crops and weed species were adjusted to produce plants of appropriate size for the postemergence test. All plant species were grown using normal greenhouse practices. Crop and weed species include annual bluegrass (Poa annua), blackgrass (Alopecurus myosuroides), black nightshade (Solanum nigra), chickweed (Stellaria media), common poppy (Papaver rhoeas), deadnettle (Lamium amplexicaule), downy brome (Bromus tectorum), field violet (Viola arvensis), galium (Galium aparine), green foxtail (Setaria viridis), Italian ryegrass (Lolium multiflorum), jointed goatgrass (Aegilops cylindrica), kochia (Kochia scoparia), lambsquarters (Chenopodium album), littleseed canarygrass (Phalaris minor), rape (Brassica napus), redroot pigweed (Amaranthus retroflexus), Russian thistle (Salsola kali), scentless chamomile (Matricaria inodora), spring barley (Hordeum vulgare), sugar beet (Beta vulgaris), sunflower (Helianthus annuus), ivyleaf speedwell (Veronica hederaefolia), spring wheat (Triticum aestivum), winter wheat (Triticum aestivum), wild buckwheat (Polygonum convolvulus), wild mustard (Sinapis arvensis), wild oat (Avena fatua), windgrass (Apera spica-venti) and winter barley (Hordeum vulgare).
(§6) Treated plants and untreated controls were maintained in a greenhouse for approximately 21 to 28 days, after which all treated plants were compared to untreated controls and visually evaluated. […] A dash response (-) means no test result.

[3] = system: downy brome; assay: Test E downy brome; type: in vivo, Bromus tectorum; details: Postemergence
How it was run: (§7)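 For postemergence, application to 1- to 4-leaf plants growing in a 60:40 sandy loam–potting mix substrate. Formulation: non-phytotoxic solvent mixture plus surfactant. Untreated controls served as the reference for the visual rating after ~21–28 days.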

[4] = system: kochia; assay: Test E kochia; type: in vivo, Kochia scoparia; details: Preemergence
[5] = system: Italian ryegrass; assay: Test E Italian ryegrass; type: in vivo, Lolium multiflorum; details: Postemergence
How it was run: as §7

[6] = system: lambsquarters; assay: Test E lambsquarters; type: in vivo, Chenopodium album; details: Preemergence
[7] = system: johnsongrass; assay: Test C postemergence johnsongrass; type: in vivo, Sorghum halepense; details: 0 to 100 scale, 0 no effect, 100 complete control
Description: as §1, §2, §3

[8] = system: field bindweed; assay: Test C postemergence field bindweed; type: in vivo, Convolvulus arvensis; details: 0 to 100 scale, 0 no effect, 100 complete control
How it was run: (§8)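 In this greenhouse assay, treated and untreated plants were kept for approximately 14 to 21 days following postemergence application, then rated by eye on a scale from 0 (no effect) to 100 (complete control).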

[9] = system: common ragweed; assay: Test C postemergence common ragweed; type: in vivo, Ambrosia elatior; details: 0 to 100 scale, 0 no effect, 100 complete control
Description: as §1, §2, §3

[10] = system: cotton; assay: Test C postemergence cotton; type: in vivo, Gossypium hirsutum; details: 0 to 100 scale, 0 no effect, 100 complete control
How it was run: as §8

[11] = system: scentless chamomile; assay: Test E scentless chamomile; type: in vivo, Matricaria inodora; details: Postemergence
Description: as §4, §5, §6

[12] = system: redroot pigweed; assay: Test E redroot pigweed; type: in vivo, Amaranthus retroflexus; details: Postemergence
How it was run: as §7

[13] = system: redroot pigweed; assay: Test C postemergence redroot pigweed; type: in vivo, Amaranthus retroflexus; details: 0 to 100 scale, 0 no effect, 100 complete control
Description: as §1, §2, §3

[14] = system: common pursiane; assay: Test D common purslane; type: in vivo, Portulaca oleracea; details: Postemergence, 0 to 100 scale
[15] = system: itchgrass; assay: Test D itchgrass; type: in vivo, Rottboellia exaltata; details: Postemergence, 0 to 100 scale
[16] = system: common groundsel; assay: Test D common groundsel; type: in vivo, Senecio vulgaris; details: Postemergence, 0 to 100 scale
[17] = Rate 250 g/ha, 0 to 100 scale where 0 is no effect and 100 is complete control
[18] = Rate 125 g/ha, 0 to 100 scale (0 no effect, 100 complete control)
[19] = Rate 16 g/ha, 0 no injury, 100 complete control
[20] = Rate 32 g/ha, 0 no injury, 100 complete control
[21] = Rate 64 g/ha, 0 no injury, 100 complete control
[22] = Rate 125 g/ha, 0 no injury, 100 complete control

CC(C)N(C(=O)n1oc(=O)n(C)c1=O)c1ccc(F)cc1 [Compound 138]
Plant response rating, Barnyardgrass ([1]; Rate 140 g/ha): 40
Plant response rating, Barnyardgrass ([1]; Rate 280 g/ha): 70
Plant response rating, Barnyardgrass ([1]; Rate 560 g/ha): 85
Plant response rating, Barnyardgrass ([1]; Rate 1120 g/ha): 85
Plant response rating, Deadnettle ([2]; Rate 125 g/ha, 0 to 100 scale): 0
Deadnettle plant response rating [2, 17]: 50
Plant response rating, Downy brome ([3]; Rate 125 g/ha, 0 to 100 scale): 0
Downy brome plant response rating [3, 17]: 2
Plant response rating, Kochia [4, 18]: 20
Kochia plant response rating (0 to 100 scale) ([4]; Rate 250 g/ha): 40
Plant response rating, I. Ryegrass ([5]; Rate 125 g/ha, 0 to 100 scale): 0
I. Ryegrass plant response rating [5, 17]: 0
Plant response rating Lambsquarters [6, 18]: 100
Lambsquarters plant response rating (0 to 100 scale) ([6]; Rate 250 g/ha): 100
Plant response rating, Johnsongrass ([7]; Rate 140 g/ha): 0
Plant response rating, Johnsongrass ([7]; Rate 280 g/ha): 20
Plant response rating, Johnsongrass ([7]; Rate 560 g/ha): 60
Plant response rating, Johnsongrass ([7]; Rate 1120 g/ha): 90
Plant response rating Field bindweed ([8]; Rate 140 g/ha): 0
Plant response rating Field bindweed ([8]; Rate 280 g/ha): 0
Plant response rating Field bindweed ([8]; Rate 560 g/ha): 0
Plant response rating Field bindweed ([8]; Rate 1120 g/ha): 50
Plant response rating Common ragweed ([9]; Rate 140 g/ha): 0
Plant response rating Common ragweed ([9]; Rate 280 g/ha): 0
Plant response rating Common ragweed ([9]; Rate 560 g/ha): 0
Plant response rating Cotton ([10]; Rate 140 g/ha): 5
Plant response rating Cotton ([10]; Rate 280 g/ha): 30
Plant response rating Cotton ([10]; Rate 560 g/ha): 40
Plant response rating Cotton ([10]; Rate 1120 g/ha): 70
Plant response rating, Scentless chamo ([11]; Rate 125 g/ha, 0 to 100 scale): 20
Scentless chamo plant response rating [11, 17]: 0
Plant response rating, Redroot pigweed ([12]; Rate 125 g/ha, 0 to 100 scale): 20
Redroot pigweed plant response rating [12, 17]: 10
Plant response rating, Redroot pigweed ([13]; Rate 140 g/ha): 0
Plant response rating, Redroot pigweed ([13]; Rate 280 g/ha): 10
Plant response rating, Redroot pigweed ([13]; Rate 560 g/ha): 40
Plant response rating, Redroot pigweed ([13]; Rate 1120 g/ha): 70

CC(C)N(C(=O)n1oc(=O)n(C2CCCCCC2)c1=O)c1ccc(F)cc1F [Compound 342]
Plant response rating, C. purslane [14, 19]: 0
Plant response rating, C. purslane [14, 20]: 0
Plant response rating, C. purslane [14, 21]: 0
Plant response rating, C. purslane [14, 22]: 0
Plant response rating, C. purslane ([14]; Rate 250 g/ha): 0
Plant response rating, Itchgrass [15, 19]: 0
Plant response rating, Itchgrass [15, 20]: 0
Plant response rating, Itchgrass [15, 21]: 0
Plant response rating, Itchgrass [15, 22]: 0
Plant response rating, Itchgrass ([15]; Rate 250 g/ha): 0
Plant response rating, Com. groundsel [16, 20]: 0
Plant response rating, Com. groundsel [16, 22]: 0
Plant response rating, Com. groundsel ([16]; Rate 250 g/ha): 0
